The target in one assay is ATR/ATRIP complex (Homo sapiens (Human), UniProt Q13535). Description: ATR/ATRIP enzymatic assay (Caliper-based). In kind it is biochemical. The following applies: ATR/ATRIP enzyme; FAM-labeled RAD17 peptide, ATP. The method, then:
(§1) The ability of the compounds of Formula I to inhibit the catalytic activity of the ATR/ATRIP complex was measured in a Caliper-based assay, and in HT-29 cells in an Alphascreen assay, following the ATR-mediated phosphorylation of CHK1, described below.
Human full-length FLAG-TEV-ATR and His6-ATRIP were co-expressed in HEK293 cells. […] The sample was loaded into a column, and then washed with buffer A three times. Protein was subsequently eluted with 2 ml of buffer B (buffer A+200 μg/ml 3×FLAG peptide).
The ability of new chemical matter to inhibit the ATR catalytic activity in this ATR/ATRIP complex was assessed using a Caliper-based assay. A 2× enzyme solution (i.e., 4 nM enzyme) was prepared using 1× Kinase Reaction Buffer (25 mM HEPES pH 8, 0.0055% Brij-35, 10 mM MnCl2, and 1 mM DTT). […] 10 μL of the 2× enzyme solution was transferred to an assay plate containing 60 nL of test compound (from a 3× serial dilution) in 100% DMSO. Following a 30-min incubation at 28° C., 10 μL of the 2× peptide solution was then transferred to the same assay plate. The reaction incubated at 28° C. for 6 h. After adding 30 μL stop buffer (100 mM HEPES pH 7.5, 0.015% Brij-35, 0.2% Coating-3 Reagent (PerkinElmer, catalog #PN760050), and 50 mM EDTA), data were collected on a Caliper instrument. Conversion values were converted to inhibition values via the following equation: % inhibition=(max−conversion)/(max−min)*100, wherein “max” corresponds to the DMSO control, and “min” corresponds to the low control. IC50 values were calculated using the following equation in XLFit: Y=Bottom+(Top−Bottom)/1+(IC50/X)^HillSlope).

In assay [1] the test system is ATR-driven phosphorylation of Chk1 kinase at Serine 345 in HT-29 cells. As to the kind of experiment: pCHK1 cellular assay (CHK1 p-Ser345 AlphaScreen SureFire). The following applies: HT-29 colorectal adenocarcinoma cells, 4-nitroquinoline N-oxide 12 μM, read-out: Cell IC50 (pCHK1). In kind it is cell-based. On the procedure:
as §1
Cellular IC50 for the inhibitors of ATR described herein were measured in HT-29 colorectal adenocarcinoma cells.
The microplate was incubated overnight (approximately 20 hours) at 37° C. with 5% CO2 and ambient O2. Stock solutions of the test compounds were prepared in 100% DMSO (Sigma, Catalog #D2650) and serially diluted 1:3 using 100% DMSO. Compounds were additionally diluted 1:33 in culture medium, and 10 μL/well were transferred to the tissue culture plate. Following the compound addition, the microplate was incubated at 37° C. for 90 minutes. […] The cells were then washed with PBS and lysed using 10 μL/well […]® Kit lysis buffer diluted to 1× in water (PerkinElmer Catalog #TGRCHK1S50K), with mixing on an orbital shaker at 500 rpm for 20 min at room temperature. Lysates were frozen at −20 OC overnight.
The pCHK1 ALPHASCREEN® signal was measured using an ENVISION® plate reader (PerkinElmer). IC50 values were calculated using a four-parameter logistic curve fit using Genedata Screener software. Percent of control for each compound concentration was calculated by the following formula: 100*(Compound−Min)/(Max−Min), where “Max” is the high control, DMSO, and “Min” is the low control, 5 μM ATR inhibitor.

SMILES strings stand for the structures. pIC50: −log10 of the molar value. Like-named read-outs stand apart in the source and are kept apart here.

ATR/ATRIP complex, sequence (Q13535 whole entry): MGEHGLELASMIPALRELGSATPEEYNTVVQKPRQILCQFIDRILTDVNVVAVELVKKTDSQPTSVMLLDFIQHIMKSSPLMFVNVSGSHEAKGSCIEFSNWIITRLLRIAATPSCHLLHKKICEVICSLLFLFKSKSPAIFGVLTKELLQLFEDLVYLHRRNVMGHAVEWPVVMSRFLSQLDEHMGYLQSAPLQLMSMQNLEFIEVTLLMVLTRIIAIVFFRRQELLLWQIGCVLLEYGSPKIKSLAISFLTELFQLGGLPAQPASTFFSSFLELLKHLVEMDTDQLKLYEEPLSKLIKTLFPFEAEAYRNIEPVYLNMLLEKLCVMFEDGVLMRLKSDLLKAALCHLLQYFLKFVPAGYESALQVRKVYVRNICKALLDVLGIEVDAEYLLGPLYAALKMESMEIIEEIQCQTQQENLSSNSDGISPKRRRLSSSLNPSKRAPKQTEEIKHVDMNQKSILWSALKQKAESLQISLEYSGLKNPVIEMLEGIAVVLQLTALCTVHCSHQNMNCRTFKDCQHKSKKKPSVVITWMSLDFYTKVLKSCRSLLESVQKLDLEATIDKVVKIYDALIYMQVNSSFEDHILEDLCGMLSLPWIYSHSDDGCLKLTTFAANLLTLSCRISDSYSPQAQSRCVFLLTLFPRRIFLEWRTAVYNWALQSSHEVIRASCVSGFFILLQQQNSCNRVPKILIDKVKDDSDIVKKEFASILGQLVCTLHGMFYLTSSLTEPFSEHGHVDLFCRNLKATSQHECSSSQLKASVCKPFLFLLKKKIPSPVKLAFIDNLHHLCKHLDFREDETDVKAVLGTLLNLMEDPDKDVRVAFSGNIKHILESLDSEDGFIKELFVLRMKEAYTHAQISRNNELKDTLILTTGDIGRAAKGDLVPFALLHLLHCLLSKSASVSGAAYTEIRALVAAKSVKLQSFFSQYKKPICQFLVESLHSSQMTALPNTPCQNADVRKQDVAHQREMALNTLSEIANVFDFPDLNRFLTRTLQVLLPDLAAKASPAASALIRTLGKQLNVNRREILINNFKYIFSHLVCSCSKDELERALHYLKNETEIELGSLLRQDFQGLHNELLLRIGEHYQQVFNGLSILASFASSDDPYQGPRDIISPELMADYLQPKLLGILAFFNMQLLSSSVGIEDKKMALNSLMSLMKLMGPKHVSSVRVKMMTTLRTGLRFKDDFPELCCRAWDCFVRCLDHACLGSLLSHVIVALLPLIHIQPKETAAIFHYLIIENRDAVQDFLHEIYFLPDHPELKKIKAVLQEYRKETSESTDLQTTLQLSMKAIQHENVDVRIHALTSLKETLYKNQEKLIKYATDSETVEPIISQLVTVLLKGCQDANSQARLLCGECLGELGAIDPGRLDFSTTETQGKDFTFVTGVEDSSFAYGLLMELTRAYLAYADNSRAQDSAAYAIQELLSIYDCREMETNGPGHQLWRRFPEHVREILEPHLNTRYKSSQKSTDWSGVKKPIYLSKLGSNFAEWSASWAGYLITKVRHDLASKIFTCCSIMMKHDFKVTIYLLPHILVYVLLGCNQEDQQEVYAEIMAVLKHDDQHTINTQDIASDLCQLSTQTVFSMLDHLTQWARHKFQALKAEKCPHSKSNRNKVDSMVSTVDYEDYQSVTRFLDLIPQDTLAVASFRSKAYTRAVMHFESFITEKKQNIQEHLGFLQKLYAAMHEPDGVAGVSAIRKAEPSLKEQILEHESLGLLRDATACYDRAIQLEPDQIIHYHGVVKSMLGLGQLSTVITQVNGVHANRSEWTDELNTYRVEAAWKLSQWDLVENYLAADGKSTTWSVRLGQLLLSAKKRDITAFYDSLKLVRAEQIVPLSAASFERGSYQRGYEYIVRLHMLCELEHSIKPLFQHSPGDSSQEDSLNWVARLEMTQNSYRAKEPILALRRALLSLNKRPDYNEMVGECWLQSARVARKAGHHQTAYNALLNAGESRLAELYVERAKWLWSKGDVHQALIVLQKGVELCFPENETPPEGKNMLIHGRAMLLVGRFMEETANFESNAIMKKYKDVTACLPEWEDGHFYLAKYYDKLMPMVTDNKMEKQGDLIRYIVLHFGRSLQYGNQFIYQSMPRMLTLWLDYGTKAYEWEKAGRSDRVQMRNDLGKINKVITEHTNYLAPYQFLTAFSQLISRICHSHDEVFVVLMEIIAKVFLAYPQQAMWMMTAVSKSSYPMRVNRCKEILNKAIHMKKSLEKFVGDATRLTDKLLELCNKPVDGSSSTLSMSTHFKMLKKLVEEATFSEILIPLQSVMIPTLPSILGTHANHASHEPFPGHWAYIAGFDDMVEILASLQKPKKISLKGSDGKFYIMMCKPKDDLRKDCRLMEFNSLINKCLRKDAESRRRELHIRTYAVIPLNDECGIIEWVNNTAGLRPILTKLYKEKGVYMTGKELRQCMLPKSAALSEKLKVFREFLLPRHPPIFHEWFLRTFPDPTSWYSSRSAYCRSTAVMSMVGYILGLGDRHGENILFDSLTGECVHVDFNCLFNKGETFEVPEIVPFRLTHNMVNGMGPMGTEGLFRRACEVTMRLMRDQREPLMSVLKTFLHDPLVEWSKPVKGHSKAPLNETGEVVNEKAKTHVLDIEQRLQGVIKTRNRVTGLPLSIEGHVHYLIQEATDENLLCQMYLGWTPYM
ATR/ATRIP complex, sequence (Q8WXE1 whole entry partner): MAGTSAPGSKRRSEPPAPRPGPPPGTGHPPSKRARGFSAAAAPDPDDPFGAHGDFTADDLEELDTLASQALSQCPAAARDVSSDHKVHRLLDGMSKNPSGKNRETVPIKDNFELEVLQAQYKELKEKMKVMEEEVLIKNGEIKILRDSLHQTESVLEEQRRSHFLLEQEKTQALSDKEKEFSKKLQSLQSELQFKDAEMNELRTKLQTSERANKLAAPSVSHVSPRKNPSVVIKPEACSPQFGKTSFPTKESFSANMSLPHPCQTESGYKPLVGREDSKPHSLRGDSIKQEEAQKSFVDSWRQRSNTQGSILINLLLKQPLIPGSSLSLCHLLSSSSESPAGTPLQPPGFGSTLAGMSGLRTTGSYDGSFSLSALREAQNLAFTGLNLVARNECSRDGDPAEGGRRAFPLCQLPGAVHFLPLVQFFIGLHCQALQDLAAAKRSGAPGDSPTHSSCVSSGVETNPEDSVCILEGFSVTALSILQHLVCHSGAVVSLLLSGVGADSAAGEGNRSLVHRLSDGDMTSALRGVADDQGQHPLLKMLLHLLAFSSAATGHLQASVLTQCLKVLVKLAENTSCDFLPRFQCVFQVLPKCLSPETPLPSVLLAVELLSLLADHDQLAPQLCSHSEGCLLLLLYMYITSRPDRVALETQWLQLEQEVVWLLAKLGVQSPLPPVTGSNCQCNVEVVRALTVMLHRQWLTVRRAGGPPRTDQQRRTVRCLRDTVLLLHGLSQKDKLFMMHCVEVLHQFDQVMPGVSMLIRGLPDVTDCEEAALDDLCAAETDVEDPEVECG

Take `C[C@@H]1COCCN1c1cc(N=S(C)(C)=O)nc(-n2c(N)nc3ccccc32)c1` [Example 9, (R)-((6-(2-Amino-1H-benzo[d]imidazol-1-yl)-4-(3-methylmorpholino)pyridin-2-yl)imino)dimethyl-λ^6-sulfanone]: the negative logarithm of the IC50 (pIC50) on ATR/ATRIP complex was 9.00; in assay [1] (Homo sapiens), 6.80.

Consider `CNc1nc2ccccc2n1-c1cc(N2CCOC[C@H]2C)cc(N=S(C)(C)=O)n1` [Example 10, (R)-Dimethyl((6-(2-(methylamino)-1H-benzo[d]imidazol-1-yl)-4-(3-methylmorpholino)pyridin-2-yl)imino)-λ^6-sulfanone], for which the negative-log IC50 (pIC50) against ATR/ATRIP complex was 9.00; in assay [1] (Homo sapiens), 7.46.

With `C[C@@H]1COCCN1c1cc(N=S(C)(C)=O)nc(-c2cc(Cl)nc3[nH]ccc23)c1` [Example 27, (R)-((6-(6-chloro-1H-pyrrolo[2,3-b]pyridin-4-yl)-4-(3-methylmorpholino)pyridin-2-yl)imino)dimethyl-λ^6-sulfanone], the negative-log IC50 (pIC50) on ATR/ATRIP complex was 7.52; in assay [1] (Homo sapiens) it was 6.18.

Regarding `C[C@@H]1COCCN1c1cc(N=S(C)(C)=O)nc(-c2ccnc3[nH]cnc23)c1` [Example 2, (R)-((6-(3H-Imidazo[4,5-b]pyridin-7-yl)-4-(3-methylmorpholino)pyridin-2-yl)imino)dimethyl-λ^6-sulfanone], the pIC50 was 6.93 on ATR/ATRIP complex and 6.09 in assay [1] (Homo sapiens).

As to `C[C@@H]1COCCN1c1cc(N=S(C)(=O)C2CC2)nc(-c2cncc3[nH]ccc23)c1` (some centres unmarked) [Example 22], the negative logarithm of the IC50 (pIC50) at ATR/ATRIP complex is 8.22; in assay [1], 6.55.

For `C[C@@H]1COCCN1c1cc(N=S2(=O)CCC2)nc(-c2ccnc3[nH]ccc23)c1` [Example 25, (R)-1-((4-(3-methylmorpholino)-6-(1H-pyrrolo[2,3-b]pyridin-4-yl)pyridin-2-yl)imino)-1-λ^6-thietane 1-oxide], the negative-log IC50 (pIC50) was 8.05 against ATR/ATRIP complex and 6.12 in assay [1] (Homo sapiens).

As for `C[C@@H]1COCCN1c1cc(N=S(C)(C)=O)nc(-n2c(CO)nc3ccccc32)c1` [Example 7, (R)-((6-(2-(Hydroxymethyl)-1H-benzo[d]imidazol-1-yl)-4-(3-methylmorpholino)pyridin-2-yl)imino)dimethyl-λ^6-sulfanone], the negative logarithm of the IC50 (pIC50) is 7.80 at ATR/ATRIP complex and 5.06 in assay [1] (Homo sapiens).

As to `C[C@@H]1COCCN1c1cc(N=S(C)(=O)C2COC2)nc(-c2cncc3[nH]ccc23)c1` (stereo partly drawn) [Example 24, methyl((4-((R)-3-methylmorpholino)-6-(1H-pyrrolo[2,3-c]pyridin-4-yl)pyridin-2-yl)imino)(oxetan-3-yl)-λ^6-sulfanone], the negative logarithm of the IC50 (pIC50) was 7.62 against ATR/ATRIP complex and 6.33 in assay [1] (Homo sapiens).

Take `Cc1nc2cccnc2n1-c1cc(N2CCOC[C@H]2C)cc(N=S(C)(C)=O)n1` [Example 4, (R)-Dimethyl((6-(2-methyl-3H-imidazo[4,5-b]pyridin-3-yl)-4-(3-methylmorpholino)pyridin-2-yl)imino)-λ^6-sulfanone]: the negative logarithm of the IC50 (pIC50) on ATR/ATRIP complex was 6.01; in assay [1] (Homo sapiens), 5.00.

Take `C[C@@H]1COCCN1c1cc(N=S(C)(C)=O)nc(-c2cccc3[nH]ccc23)c1` [Example 20, (R)-((6-(1H-indol-4-yl)-4-(3-methylmorpholino)pyridin-2-yl)imino)dimethyl-λ^6-sulfanone]: the pIC50 against ATR/ATRIP complex is 7.92; in assay [1] (Homo sapiens), 6.44.
